Experimental data as given in ChEMBL document CHEMBL1157943, “Oblongifolins A-D, polyprenylated benzoylphloroglucinol derivatives from Garcinia oblongifolia” (J Nat Prod, 2006).
Activity calls are given as the source filed them. The rule behind the calls is not given here.

How the values were obtained:
[1] = Inhibition of tubulin assembly at 10 mg/ml
[2] = Inhibition of microtubule disassembly
[3] = Inhibition of tubulin assembly
[4] = Inhibition of microtubule disassembly at 10 mg/ml

| Compound | Activity [2] | IC50 [3] [µM] | other results |
| --- | --- | --- | --- |
| CC(C)=CCC/C(C)=C/C[C@H]1C[C@]2(CC=C(C)C)C(=O)[C@@](CC=C(C)C)(C(=O)C(C(=O)c3ccc(O)c(O)c3)=C2O)C1(C)C | inactive | – | inhibition [1]: 41% |
| CC(C)=CCC/C(C)=C/C[C@H]1C[C@]2(C/C=C(\C)CCC=C(C)C)C(=O)[C@@](CC=C(C)C)(C(=O)C(C(=O)c3ccc(O)c(O)c3)=C2O)C1(C)C [OBLONGIFOLIN D] | inactive | 92 | – |
| CC(C)=CCC/C(C)=C/C[C@@H]1C[C@]2(CC=C(C)C)C(=O)[C@@](CC=C(C)C)(C(=O)C(C(=O)c3ccc(O)c(O)c3)=C2O)C1(C)C [OBLONGIFOLIN B] | – | 69 | inhibition [4]: 7% |
| CC(=O)O[C@H]1C(=O)[C@@]2(C)[C@H]([C@H](OC(=O)c3ccccc3)[C@]3(O)C[C@H](OC(=O)[C@H](O)[C@@H](NC(=O)c4ccccc4)c4ccccc4)C(C)=C1C3(C)C)[C@]1(OC(C)=O)CO[C@@H]1C[C@@H]2O [PACLITAXEL] | – | – | Activity [3]: inactive; IC50 [2]: 0.5 µM |
| CC(C)=CCC/C(C)=C/C[C@@H]1C[C@@]2(C/C=C(\C)CCC=C(C)C)C(=O)[C@](CC=C(C)C)(C(=O)C(C(=O)c3ccc(O)c(O)c3)=C2O)C1(C)C [GUTTIFERONE B] | inactive | 53 | – |
| CC(C)=CCC/C(C)=C/C[C@@H]1C[C@]2(CC=C(C)C)C(=O)[C@@](CC=C(C)C)(C(=O)C(C(=O)c3ccc(O)c(O)c3)=C2O)[C@@]1(C)CCC=C(C)C [OBLONGIFOLIN C] | inactive | 53 | – |
| C=C(C)[C@@H](CC=C(C)C)C[C@@]12C[C@@H](CC=C(C)C)C(C)(C)[C@@](CC=C(C)C)(C(=O)C(C(=O)c3ccc(O)c(O)c3)=C1O)C2=O [GARCINOL] | – | 97 | inhibition [4]: 46% |
